Data reported in patent publication US20250115598A1 (Anaxis Pharma Pty Ltd, priority 2021, published 2025).
Values belong to the compound of their own block, whether it stands above or below them.

Assays:
[1] = target: endogenous MLKL in U937 (Homo sapiens (Human), UniProt Q8NB16); assay: Degradation assay: endogenous MLKL in U937 (western blot); settings: U937, 24 h incubation, read-out: Degradation of endogenous MLKL in U937 (DC50 cell-based assay)
Summary of the method: (§1)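 Western blot band intensity of MLKL, adjusted to GAPDH loading and normalized to DMSO-only wells, gave percent degradation. Compound exposure lasted 24 h at final concentrations of 10–0.016 μM in 1:5 steps, in mouse dermal fibroblasts or human U937 cells.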

[2] = target: human RIPK3 (Homo sapiens (Human), UniProt Q9Y572); assay: KINOMEscan binding assay, human RIPK3; settings: Table 21
Summary of the method: (§2)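 Kd values come from dose-response fits to the Hill equation (Hill slope −1, Levenberg–Marquardt least squares). Compound competed with bead-bound ligand for tagged kinase, and remaining kinase was measured by qPCR after elution. Dilution series: 11 points, 3-fold, 1% DMSO final, top 30,000 nM in most runs.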

[3] = target: human RIPK1 (Homo sapiens (Human), UniProt Q13546); assay: KINOMEscan binding assay, human RIPK1; settings: Table 21
Summary of the method: as §2

[4] = target: endogenous MLKL in MDF (Mus musculus (Mouse), UniProt Q9D2Y4); assay: Degradation assay: endogenous MLKL in MDF (western blot); settings: MDF cells, 24 h incubation with compound, MLKL adjusted for loading with GAPDH, normalized to DMSO only control, read-out: Degradation of endogenous MLKL in MDF (DC50 cell-based assay)
Summary of the method: as §1

endogenous MLKL in U937, sequence (Q8NB16 whole entry): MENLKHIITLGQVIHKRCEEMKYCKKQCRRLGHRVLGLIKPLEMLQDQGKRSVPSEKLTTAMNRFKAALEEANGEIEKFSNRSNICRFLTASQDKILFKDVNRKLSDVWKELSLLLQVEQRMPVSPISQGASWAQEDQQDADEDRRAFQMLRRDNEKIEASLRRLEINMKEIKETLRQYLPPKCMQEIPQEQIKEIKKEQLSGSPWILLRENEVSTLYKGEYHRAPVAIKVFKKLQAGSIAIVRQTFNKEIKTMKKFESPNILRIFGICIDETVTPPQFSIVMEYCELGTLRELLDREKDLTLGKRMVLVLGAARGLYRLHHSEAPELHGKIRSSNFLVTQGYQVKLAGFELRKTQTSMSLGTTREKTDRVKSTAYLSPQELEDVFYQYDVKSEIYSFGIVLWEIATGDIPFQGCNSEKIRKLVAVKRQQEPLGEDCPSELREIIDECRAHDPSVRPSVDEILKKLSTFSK
human RIPK1, sequence (Q13546 whole entry): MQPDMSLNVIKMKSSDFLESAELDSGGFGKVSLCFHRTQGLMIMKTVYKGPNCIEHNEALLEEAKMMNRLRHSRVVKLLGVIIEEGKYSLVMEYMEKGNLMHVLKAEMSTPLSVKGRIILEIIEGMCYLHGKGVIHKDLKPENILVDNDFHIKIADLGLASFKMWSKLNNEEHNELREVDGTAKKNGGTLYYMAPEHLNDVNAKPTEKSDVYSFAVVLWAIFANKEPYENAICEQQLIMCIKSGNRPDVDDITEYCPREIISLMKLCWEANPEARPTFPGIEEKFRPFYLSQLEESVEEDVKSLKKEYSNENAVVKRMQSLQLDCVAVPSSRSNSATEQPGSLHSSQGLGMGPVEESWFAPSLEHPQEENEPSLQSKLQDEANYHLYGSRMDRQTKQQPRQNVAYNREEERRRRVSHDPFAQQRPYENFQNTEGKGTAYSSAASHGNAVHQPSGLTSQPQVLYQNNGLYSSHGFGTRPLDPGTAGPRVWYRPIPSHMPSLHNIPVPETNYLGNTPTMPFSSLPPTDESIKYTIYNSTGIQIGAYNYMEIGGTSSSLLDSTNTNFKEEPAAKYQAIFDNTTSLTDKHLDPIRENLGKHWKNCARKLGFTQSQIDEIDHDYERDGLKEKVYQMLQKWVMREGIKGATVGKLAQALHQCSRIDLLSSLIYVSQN
human RIPK3, sequence (Q9Y572 whole entry): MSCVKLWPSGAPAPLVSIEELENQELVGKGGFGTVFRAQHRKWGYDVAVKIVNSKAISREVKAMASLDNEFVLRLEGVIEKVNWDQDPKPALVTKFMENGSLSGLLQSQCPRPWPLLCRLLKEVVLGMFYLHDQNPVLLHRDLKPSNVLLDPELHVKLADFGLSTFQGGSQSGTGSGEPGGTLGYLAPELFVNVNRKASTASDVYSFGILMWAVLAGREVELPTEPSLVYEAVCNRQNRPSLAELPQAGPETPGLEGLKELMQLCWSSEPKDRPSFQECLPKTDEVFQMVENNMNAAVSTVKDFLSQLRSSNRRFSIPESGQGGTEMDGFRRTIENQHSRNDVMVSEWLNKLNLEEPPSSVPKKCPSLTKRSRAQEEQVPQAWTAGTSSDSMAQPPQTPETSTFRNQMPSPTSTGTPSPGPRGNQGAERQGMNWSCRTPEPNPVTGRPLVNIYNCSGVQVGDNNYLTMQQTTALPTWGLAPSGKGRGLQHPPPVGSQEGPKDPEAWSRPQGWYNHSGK
endogenous MLKL in MDF, sequence (Q9D2Y4 whole entry): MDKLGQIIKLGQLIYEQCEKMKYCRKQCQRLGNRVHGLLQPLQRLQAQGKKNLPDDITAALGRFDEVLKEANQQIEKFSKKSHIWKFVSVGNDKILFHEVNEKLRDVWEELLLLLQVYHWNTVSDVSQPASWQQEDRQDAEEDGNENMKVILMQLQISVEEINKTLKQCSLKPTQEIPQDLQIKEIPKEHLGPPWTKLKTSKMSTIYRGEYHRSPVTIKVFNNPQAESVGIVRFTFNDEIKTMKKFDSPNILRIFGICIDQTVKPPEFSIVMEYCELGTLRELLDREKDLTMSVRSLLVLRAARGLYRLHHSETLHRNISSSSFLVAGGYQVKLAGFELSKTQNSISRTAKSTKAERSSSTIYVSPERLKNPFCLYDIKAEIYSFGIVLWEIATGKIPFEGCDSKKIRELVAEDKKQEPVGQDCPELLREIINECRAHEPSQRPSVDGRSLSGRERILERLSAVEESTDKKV

Compound: Cc1ncsc1-c1ccc(CNC(=O)[C@@H]2C[C@@H](O)CN2C(=O)[C@@H](NC(=O)COCCOCCn2cc(-c3cnc(N)c4c(-c5ccc(NS(=O)(=O)C(F)F)c(O[C@@H](C)c6ccc(F)cc6)c5)nn(C)c34)cn2)C(C)(C)C)cc1 [Compound 1006, (2S,4R)-1-[(2S)-2-(2-{2-[2-(4-{4-amino-3-[4-(difluoromethanesulfonamido)-3-[(1S)-1-(4-fluorophenyl)ethoxy]phenyl]-1-methyl-1H-pyrazolo[4,3-c]pyridin-7-yl}-1H-pyrazol-1-yl)ethoxy]ethoxy}acetamido)-3,3-dimethylbutanoyl]-4-hydroxy-N-{[4-(4-methyl-1,3-thiazol-5-yl)phenyl]methyl}pyrrolidine-2-carboxamide]
DC50 [1]: < 1 µM

Compound: Nc1ncc(-c2cnn(C3CCOCC3)c2)c2[nH]nc(-c3ccc(NS(=O)(=O)C(F)F)c(OCc4cccc(Cl)c4)c3)c12 [Compound 131]
Kd [2]: > 10 µM
Kd [3]: > 10 µM

Compound: N-(4-(4-amino-1-methyl-7-(1-(1,2,2-trimethylpiperidin-4-yl)-1H-pyrazol-4-yl)-1H-pyrazolo[4,3-c]pyridin-3-yl)-2-((S)-1-(4-fluorophenyl)ethoxy)phenyl)-1,1-difluoromethanesulfonamide [Compound 113]
Kd [2]: > 10 µM
Kd [3]: > 10 µM

Compound: Cc1ncsc1-c1ccc(CNC(=O)[C@@H]2C[C@@H](O)CN2C(=O)[C@@H](NC(=O)CCCCCCn2cc(-c3cnc(N)c4c(-c5ccc(NS(=O)(=O)C(F)F)c(O[C@@H](C)c6ccc(F)cc6)c5)nn(C)c34)cn2)C(C)(C)C)cc1 [Compound 1008, (2S,4R)-1-[(2S)-2-[7-(4-{4-amino-3-[4-(difluoromethanesulfonamido)-3-[(1 S)-1-(4-fluorophenyl)ethoxy]phenyl]-1-methyl-1H-pyrazolo[4,3-c]pyridin-7-yl}-1H-pyrazol-1-yl)heptanamido]-3,3-dimethylbutanoyl]-4-hydroxy-N-{[4-(4-methyl-1,3-thiazol-5-yl)phenyl]methyl}pyrrolidine-2-carboxamide]
DC50 [1]: < 1 µM

The next lines start with the values.

DC50 [1]: < 1 µM
Compound: Cc1ncsc1-c1ccc(CNC(=O)[C@@H]2C[C@@H](O)CN2C(=O)[C@@H](NC(=O)CCN2CCCC(n3cc(-c4cnc(N)c5c(-c6ccc(NS(=O)(=O)C(F)F)c(O[C@@H](C)c7ccc(F)cc7)c6)nn(C)c45)cn3)C2)C(C)(C)C)cc1 (stereo partly drawn) [Compound 1014, (2S,4R)-1-[(2S)-2-{3-[3-(4-{4-amino-3-[4-(difluoromethanesulfonamido)-3-[(1S)-1-(4-fluorophenyl)ethoxy]phenyl]-1-methyl-1H-pyrazolo[4,3-c]pyridin-7-yl}-1H-pyrazol-1-yl)piperidin-1-yl]propanamido}-3,3-dimethylbutanoyl]-4-hydroxy-N-{[4-(4-methyl-1,3-thiazol-5-yl)phenyl]methyl}pyrrolidine-2-carboxamide]

DC50 [1]: 1 to 10 µM
Compound: Cc1ncsc1-c1ccc(CNC(=O)[C@@H]2C[C@@H](O)CN2C(=O)[C@@H](NC(=O)COCCN2CCCC(n3cc(-c4cnc(N)c5c(-c6ccc(NS(=O)(=O)C(F)F)c(O[C@@H](C)c7ccc(F)cc7)c6)nn(C)c45)cn3)C2)C(C)(C)C)cc1 (stereo partly drawn) [Compound 1015, (2S,4R)-1-[(2S)-2-(2-{2-[3-(4-{4-amino-3-[4-(difluoromethanesulfonamido)-3-[(1S)-1-(4-fluorophenyl)ethoxy]phenyl]-1-methyl-1H-pyrazolo[4,3-c]pyridin-7-yl}-1H-pyrazol-1-yl)piperidin-1-yl]ethoxy}acetamido)-3,3-dimethylbutanoyl]-4-hydroxy-N-{[4-(4-methyl-1,3-thiazol-5-yl)phenyl]methyl}pyrrolidine-2-carboxamide]

DC50 [4]: < 1 µM
Compound: C[C@H](Oc1cc(-c2nn(C)c3c(-c4cnn(CCCCCCCOc5cccc6c5C(=O)N(C5CCC(=O)NC5=O)C6=O)c4)cnc(N)c23)ccc1NS(=O)(=O)C(F)F)c1ccc(F)cc1 (stereo partly drawn) [Compound 1031, N-(4-{4-amino-7-[1-(7-{[2-(2,6-dioxopiperidin-3-yl)-1,3-dioxo-2,3-dihydro-1H-isoindol-4-yl]oxy}heptyl)-1H-pyrazol-4-yl]-1-methyl-1H-pyrazolo[4,3-c]pyridin-3-yl}-2-[(1 S)-1-(4-fluorophenyl)ethoxy]phenyl)-1,1-difluoromethanesulfonamide]
